Measured values as given in US20260198498A1, “FUNGICIDAL COMPOSITIONS” (SYNGENTA CROP PROTECTION AG, priority 2022, published 2026).

Tests used:
[1] = tested on: Glomerella lagenarium (Colletotrichum lagenarium); test: Example B5: Glomerella lagenarium (Colletotrichum lagenarium)/Liquid Culture (Anthracnose); type: cell-based; conditions: Colletotrichum orbiculare, liquid culture, photometrically 3 to 4 days after application, read-out: control of Glomerella lagenarium
Experimental: Example B5: Glomerella lagenarium (Colletotrichum lagenarium)/Liquid Culture (Anthracnose)
(§1) Conidia of the fungus from cryogenic storage are directly mixed into nutrient broth (PDB potato dextrose broth). After placing a (DMSO) solution of test compound into a microtiter plate (96-well format), the nutrient broth containing the fungal spores is added. The test plates are incubated at 24° C. and the inhibition of growth is measured photometrically 3 to 4 days after application.

[2] = tested on: Monographella nivalis (Microdochium nivale); test: Example B12: Monographella nivalis (Microdochium nivale)/Liquid Culture (Foot Rot Cereals); type: cell-based; conditions: liquid culture, photometrically 4 to 5 days after application, read-out: control of Monographella nivalis
Experimental: Example B12: Monographella nivalis (Microdochium nivale)/Liquid Culture (Foot Rot Cereals)
as §1, with “is determined” for “is measured”, “photometrically 4” for “photometrically 3”, “to 5” for “to 4”

Pyrenophora teres = test: Example B18: Pyrenophora teres/Barley/Leaf Disc Preventative (Net Blotch); type: in vivo; conditions: foliar, barley leaf segments, inoculated 2 days after application
Experimental: Example B18: Pyrenophora teres/Barley/Leaf Disc Preventative (Net Blotch)
Barley leaf segments cv. Hasso are placed on agar in a multiwell plate (24-well format) and sprayed with the formulated test compound diluted in water. The leaf segments are inoculated with a spore suspension of the fungus 2 days after application. The inoculated leaf segments are incubated at 20° C. and 65% rh under a light regime of 12 h light/12 h darkness in a climate cabinet and the activity of a compound is assessed as disease control compared to untreated when an appropriate level of disease damage appears in untreated check leaf segments (5-7 days after application).

[3] = tested on: Mycosphaerella arachidis (Cercospora arachidicola); test: Example B13: Mycosphaerella arachidis (Cercospora arachidicola)/Liquid Culture (Early Leaf Spot); type: cell-based; conditions: liquid culture, photometrically 4 to 5 days after application, read-out: control of Mycosphaerella arachidis
Experimental: Example B13: Mycosphaerella arachidis (Cercospora arachidicola)/Liquid Culture (Early Leaf Spot)
as §1, with “is determined” for “is measured”, “photometrically 4” for “photometrically 3”, “to 5” for “to 4”

[4] = tested on: Mycosphaerella graminicola (Septoria tritici); test: Example B21: Mycosphaerella graminicola (Septoria tritici)/Liquid Culture (Septoria Blotch); type: cell-based; conditions: Zymoseptoria tritici, liquid culture, photometrically 4-5 days after application, read-out: control of Mycosphaerella graminicola
Experimental: Example B21: Mycosphaerella graminicola (Septoria tritici)/Liquid Culture (Septoria Blotch)
as §1, with “determined” for “measured”, “4-5” for “3 to 4”

Fusarium culmorum = type: in vivo; conditions: 200 ppm; wheat spikelets, preventative, inoculated 1 day after application
[5] = tested on: Phaeosphaeria nodorum (Septoria nodorum); test: Example B11: Phaeosphaeria nodorum (Septoria nodorum)/Wheat/Leaf Disc Preventative (Glume Blotch); type: in vivo; conditions: Parastagonospora nodorum, foliar, wheat leaf segments, inoculated 2 days after application
Experimental: Example B11: Phaeosphaeria nodorum (Septoria nodorum)/Wheat/Leaf Disc Preventative (Glume Blotch)
Wheat leaf segments cv. Kanzler are placed on agar in a multiwell plate (24-well format) and sprayed with the formulated test compound diluted in water. The leaf disks are inoculated with a spore suspension of the fungus 2 days after application. The inoculated test leaf disks are incubated at 20° C. and 75% rh under a light regime of 12 h light/12 h darkness in a climate cabinet and the activity of a compound is assessed as percent disease control compared to untreated when an appropriate level of disease damage appears in untreated check leaf disks (5-7 days after application).

[6] = tested on: Gibberella zeae (Fusarium graminearum); type: in vivo; conditions: 200 ppm; wheat spikelets, preventative, inoculated one day after application
[7] = tested on: Botryotinia fuckeliana (Botrytis cinerea); test: Example B2: Botryotinia fuckeliana (Botrytis cinerea)/Liquid Culture (Gray Mould); type: cell-based; conditions: liquid culture, growth inhibition photometrically 3 to 4 days after application, read-out: control of Botryotinia fuckeliana
Experimental: Example B2: Botryotinia fuceliana (Botrytis cinerea)/Liquid Culture (Gray Mould)
as §1, with “(Vogels” for “(PDB potato dextrose”, “determined” for “measured”

Alternaria solani = test: Example B1: Alternaria solani/Tomato/Leaf Disc (Early Blight); type: in vivo; conditions: foliar, tomato leaf disks, inoculated 2 days after application, compared to untreated control
Experimental: Example B1: Alternaria solani/Tomato/Leaf Disc (Early Blight)
Tomato leaf disks cv. Baby are placed on agar in multiwell plates (24-well format) and sprayed with the formulated test compound diluted in water. The leaf disks are inoculated with a spore suspension of the fungus 2 days after application. The inoculated leaf disks are incubated at 23° C./21° C. (day/night) and 80% rh under a light regime of 12/12 h (light/dark) in a climate cabinet and the activity of a compound is assessed as percent disease control compared to untreated when an appropriate level of disease damage appears on untreated check leaf disks (5-7 days after application).

[8] = Comparison of fungicidal activity of the separated stereoisomers (peaks 1 to 4); conditions: SFC-separated stereoisomers of Example P3
[9] = tested on: Puccinia recondita f. sp. tritici; test: Example B16: Puccinia recondita f. sp. tritici/Wheat/Leaf Disc Preventative (Brown Rust); type: in vivo; conditions: 200 ppm, wheat leaf segments, inoculated 1 day after application
Experimental: Example B16: Puccinia recondita f. sp. tritici/Wheat/Leaf Disc Preventative (Brown Rust)
Wheat leaf segments cv. Kanzler are placed on agar in multiwell plates (24-well format) and sprayed with the formulated test compound diluted in water. The leaf disks are inoculated with a spore suspension of the fungus 1 day after application. The inoculated leaf segments are incubated at 19° C. and 75% rh under a light regime of 12 h light/12 h darkness in a climate cabinet and the activity of a compound is assessed as percent disease control compared to untreated when an appropriate level of disease damage appears in untreated check leaf segments (7-9 days after application).

[10] = tested on: Magnaporthe grisea (Pyricularia oryzae); type: in vivo; conditions: 200 ppm; rice leaf segments, preventative, inoculated 2 days after application
[11] = tested on: Thanatephorus cucumeris (Rhizoctonia solani); test: Example B19: Thanatephorus cucumeris (Rhizoctonia solani)/Liquid Culture (Foot Rot, Damping-Off); type: cell-based; conditions: 20 ppm; liquid culture, photometrically 3-4 days after application
Experimental: Example B19: Thanatephorus cucumeris (Rhizoctonia solani)/Liquid Culture (Foot Rot, Damping-Off)
Mycelia fragments of a newly grown liquid culture of the fungus are directly mixed into nutrient broth (PDB potato dextrose broth). After placing a (DMSO) solution of the test compounds into a microtiter plate (96-well format), the nutrient broth containing the fungal material is added. The test plates are incubated at 24° C. and the inhibition of growth is determined photometrically 3-4 days after application.

Plasmopara viticola = type: in vivo; conditions: 200 ppm; grape vine leaf disks, preventative, inoculated 1 day after application

SMILES: Cc1c([C@H]2CN(C(=O)c3cc(-c4ncc(F)cc4F)on3)[C@@H](C)c3ccccc32)cnn1C (racemic) [X.21, [5-(3,5-difluoro-2-pyridyl)isoxazol-3-yl]-[rac-(1S,4S)-4-(1,5-dimethylpyrazol-4-yl)-1-methyl-3,4-dihydro-1H-isoquinolin-2-yl]methanone]
- inhibition of growth at 20 ppm [1]: ≥ 80%
- inhibition of growth at 20 ppm [2]: ≥ 80%
- pest or weed control at 200 ppm (Pyrenophora teres): ≥ 80%
- inhibition of growth at 20 ppm [3]: ≥ 80%
- inhibition of growth at 20 ppm [4]: ≥ 80%
- control of Fusarium culmorum (Fusarium culmorum): at least 80%
- pest or weed control at 200 ppm [5]: ≥ 80%
- control of Gibberella zeae [6]: at least 80%
- inhibition of growth at 20 ppm [7]: ≥ 80%
- pest or weed control at 200 ppm (Alternaria solani): ≥ 80%

SMILES: C[C@H]1c2ccccc2[C@@](C)(c2cnn(C)c2)CN1C(=O)c1cc(-c2ccc(F)cc2F)on1 (single isomer, unassigned) [X.22]
- fungicidal activity compared with the other enantiomer [8]: more fungicidally active than the compound of peak 3

SMILES: C[C@@H]1c2ccccc2[C@@](C)(c2cnn(C)c2)CN1C(=O)c1cc(-c2ccc(F)cc2F)on1 (single isomer, unassigned) [peak 1]
- fungicidal activity compared with the other enantiomer [8]: more fungicidally active than the compound of peak 2

SMILES: Cc1c(C2CN(C(=O)c3nc(-c4ccc(F)cc4F)no3)Cc3ccccc32)cnn1C (stereo not drawn) [X.02, [3-(2,4-difluorophenyl)-1,2,4-oxadiazol-5-yl]-[4-(1,5-dimethylpyrazol-4-yl)-3,4-dihydro-1H-isoquinolin-2-yl]methanone]
- inhibition of growth at 20 ppm [1]: ≥ 80%
- inhibition of growth at 20 ppm [2]: ≥ 80%
- inhibition of growth at 20 ppm [3]: ≥ 80%
- inhibition of growth at 20 ppm [4]: ≥ 80%
- pest or weed control at 200 ppm [5]: ≥ 80%
- inhibition of growth at 20 ppm [7]: ≥ 80%
- pest or weed control at 200 ppm (Alternaria solani): ≥ 80%

SMILES: Cn1cc(C2(C)CN(C(=O)c3cc(-c4ccc(F)cc4F)on3)Cc3ccccc32)cn1 (stereo not drawn) [X.14, [5-(2,4-difluorophenyl)isoxazol-3-yl]-[4-methyl-4-(1-methylpyrazol-4-yl)-1,3-dihydroisoquinolin-2-yl]methanone]
- inhibition of growth at 20 ppm [1]: ≥ 80%
- inhibition of growth at 20 ppm [2]: ≥ 80%
- pest or weed control at 200 ppm (Pyrenophora teres): ≥ 80%
- inhibition of growth at 20 ppm [3]: ≥ 80%
- inhibition of growth at 20 ppm [4]: ≥ 80%
- pest or weed control at 200 ppm [5]: ≥ 80%
- inhibition of growth at 20 ppm [7]: ≥ 80%

SMILES: Cc1c(C2CN(C(=O)c3cc(-c4ccc(F)cc4F)on3)Cc3ccccc32)cnn1C (stereo not drawn) [X.16, [5-(2,4-difluorophenyl)isoxazol-3-yl]-[4-(1,5-dimethylpyrazol-4-yl)-3,4-dihydro-1H-isoquinolin-2-yl]methanone]
- inhibition of growth at 20 ppm [1]: ≥ 80%
- control of Puccinia recondita f. sp. tritici [9]: at least 80%
- inhibition of growth at 20 ppm [2]: ≥ 80%
- control of Magnaporthe grisea [10]: at least 80%
- pest or weed control at 200 ppm (Pyrenophora teres): ≥ 80%
- inhibition of growth at 20 ppm [3]: ≥ 80%
- inhibition of growth at 20 ppm [4]: ≥ 80%
- pest or weed control at 200 ppm [5]: ≥ 80%
- inhibition of growth at 20 ppm [7]: ≥ 80%
- control of Thanatephorus cucumeris [11]: at least 80%

SMILES: Cn1cc(C2CN(C(=O)c3noc(-c4ccccc4)n3)Cc3ccccc32)cn1 (stereo not drawn) [X.17, [4-(1-methylpyrazol-4-yl)-3,4-dihydro-1H-isoquinolin-2-yl]-(5-phenyl-1,2,4-oxadiazol-3-yl)methanone]
- inhibition of growth at 20 ppm [2]: ≥ 80%
- inhibition of growth at 20 ppm [3]: ≥ 80%
- inhibition of growth at 20 ppm [4]: ≥ 80%
- pest or weed control at 200 ppm [5]: ≥ 80%
- inhibition of growth at 20 ppm [7]: ≥ 80%
- control of Plasmopara viticola (Plasmopara viticola): at least 80%
